Data on one compound can be found in patent US9351940B2, “Nanoparticles comprising esters of poly (methyl vinyl ether-co-maleic anhydride) and uses thereof” (priority 2011, dated 2016).

A short description of the data set: Water solubility of KTZ in aqueous suspension without polymer. Type of data set: physicochemical. Particulars: kinetic from dmso stock, aqueous suspension after precipitation from alcoholic solution, no polymer.

≈ marks a conversion by molar mass, not a printed value.

Description: The selection of the appropriate Ketoconazole:polymer ratio (w/w) which is needed to dissolve drug crystals and to obtain homogeneous nanoparticles free from drug crystals was firstly optimized. For that purpose, 200 mg of KTZ were resuspended in different volumes of both absolute ethanol (10, 15 and 20 mL) as control solution or in the same volumes of GANTREZ® ES 425 ethanolic solution (50 mg/mL). GANTREZ® ES nanoparticles were produced by the addition of the corresponding volume of bidistilled water (2:1 (v/v) water/polymer solution) to GANTREZ® ES alcoholic solutions containing KTZ. […] Finally, the aqueous suspensions of KTZ-loaded GANTREZ® ES nanoparticles and KTZ aqueous suspension without the polymer were collected for further characterization and drug content quantification.
The amount of encapsulated drug in the nanoparticles was assayed by UV spectrophotometry at 257 nm (Shimadzu 1203 UV-VIS). In order to quantify the amount of KTZ in the nanoparticles suspension or free KTZ suspension without the polymer GANTREZ® ES), all samples of fleshly prepared formulations were evaporated under reduced pressure to eliminate ethanol, and then 1 mL of triplicate samples were centrifuged at 20,000 rpm for 25 min. […]

In general, solubility refers to how much of the substance goes into solution per volume. A low value points to little dissolved substance. Take `CC(=O)N1CCN(c2ccc(OCC3COC(Cn4ccnc4)(c4ccc(Cl)cc4Cl)O3)cc2)CC1` (stereo not shown) [KTZ, Ketoconazole]: the solubility was ~11 µg/mL (≈ 20.7 µM).
